EP0825877B1, “COMPOSITION FOR PREVENTION OF POSTERIOR CAPSULE OPACIFICATION” (Pfizer Health AB, priority 1995, dated 1996)

Key:
[1] = Diffusion experiment in a Sundelöf cell; format: physicochemical; settings: 100 µg/ml of Doxorubicin; Sundelöfcell; hyaluronate 10 mg/ml
Description: Doxorubicin is slowly released from the hyaluronate-doxorubicine solution. […] The diffusion of Doxorubicine out of the hyaluronate solution is more than three times slower than the diffusion of doxorubicine in water. In a diffusion experiment using 100 µg/ml of Doxorubicin in a Sundelöfcell (Sundelöf L-O, 1982, Anal. Biochem, 127,282-286, Laurent T C, Preston B N Sundelöf L-O Van Damme M P, 1982, Anal. Biochem, 127, 287-292), it took 20 hours for 20 % of doxorubicin in water to diffuse into the upper compartment as compared to 70 hours for the doxorubicine in hyaluronate (10 mg/ml).

[2] = test system: secondary cataract formation; test: In vivo study in rabbits: secondary cataract weighed two months after phacoemulsification, IOL implantation and doxorubicin injection; parameters: species or system Albino rabbits; settings: 1 µg doxorubicin; 100 µl into the capsular bag behind the IOL; two months postoperatively
Description: Albino rabbits were used. In both eyes the crystalline lens was removed by phacoemusification. In both eyes a PMMA IOL was implanted into the capsular bag. In one eye 100 µl of the doxorubicin-Healon slution was injected into the capsular bag behind the IOL. The fellow eye received 100 µ 1 Healon. Two months postoperatively the animals were killed, and the secondary cataracts were removed and weighed to the neariest mg. In one group the doxorubicin was injected dissolved in ta buffer solution instead of Healon. This in order to compare the efficacy when doxorubicin was dissolved in either Healon or buffer. There was a dose dependent inhibitory effect of doxorubicin dissolved in Healon. The doses of 3, 1 and 0.3 µg all gave a significant decrease of the secondary cataract formation. When comparing the dosage 1 µg injected in either Healon of buffer, there was a significant better inibitory effect when doxorubicin was delivered in Healon.
The amount of secondary cataract tissue was typically: […]

[3] = test system: secondary cataract formation; test: In vivo secondary cataract formation (PCO wet mass), 5-FU single dose versus slow release; parameters: species or system rabbits; settings: for inhibition of PCO: PCO measured as wet mass
Description: 5 mg of 5-FU was given to rabbits either as a single dose (instant release) or as a slow release formulation prepared according to Example 3 where 5 mg 5-FU was released over 3 or 12 days in vivo. The amount of secondary cataract formation in the rabbits were evaluated according to Lundgren at al (Lundgren B, Jonsson E and Rolfsen W, 1992, Acta Ophthalmol. Suppl 205:25-28). The single saline dose of 5-FU reduced the secondary cataract formation by 50% while the SR-formulation (SR-3 and SR-10) reduced the secondary cataract formation by 70 and 100% respectively.

SMILES: COc1cccc2c1C(=O)c1c(O)c3c(c(O)c1C2=O)C[C@@](O)(C(=O)CO)C[C@@H]3O[C@H]1C[C@H](N)[C@H](O)[C@H](C)O1 [doxorubicin in buffer, doxorubicin]
- time for 20 % of doxorubicin to diffuse into the upper compartment [1]: 20 h
- amount of secondary cataract tissue [2]: 65 ± 15 mg

SMILES: O=c1[nH]cc(F)c(=O)[nH]1 [5-FU, 5-fluoro-uracil]
- inhibition of PCO ([3]; 5 mg administered as a single dose): 50%
- inhibition of PCO ([3]; 5 mg delivered over 2-3 days): 70%
- inhibition of PCO ([3]; 5 mg delivered over 10-12 days): > 90%
- reduction of secondary cataract formation ([3]; 5 mg of 5-FU, single saline dose or slow release over 3 or 12 days): 50%
